Among the data in US20240343704A1, “HALO-SUBSTITUTED AMINO PYRIDINE COMPOUNDS AS INHIBITORS OF THE HAEMATOPOIETIC PROGENITOR KINASE 1 (HPK1)” (priority 2021, published 2024) are IC50 values, retold here.

The term IC50 denotes the point on the concentration scale where inhibition reaches its midpoint.

The target in this assay is T1, Recombinant (1-346) HPK1 (h) (Homo sapiens, UniProt Q92918).
T1 construct: Recombinant (1-346) HPK1 (h) is incubated with 8 mM MOPS pH 7.0
T1 sequence (Q92918 1-346): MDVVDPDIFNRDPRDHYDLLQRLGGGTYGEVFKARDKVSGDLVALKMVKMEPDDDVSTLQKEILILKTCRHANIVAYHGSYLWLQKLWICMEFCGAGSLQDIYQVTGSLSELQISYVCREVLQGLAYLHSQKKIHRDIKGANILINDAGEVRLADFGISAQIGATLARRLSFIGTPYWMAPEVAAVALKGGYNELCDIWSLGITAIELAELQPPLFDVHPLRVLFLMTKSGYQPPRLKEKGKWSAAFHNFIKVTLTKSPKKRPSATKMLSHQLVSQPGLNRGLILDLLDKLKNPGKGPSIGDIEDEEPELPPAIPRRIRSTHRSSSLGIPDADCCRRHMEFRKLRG
Description: HPK1 Human STE Kinase Enzymatic Radiometric Assay. The assay is classed as biochemical. As to conditions: read-out: HPK1 IC50 nM Range*. The procedure: A stock solution of 10 mM of test compound is prepared in DMSO. The compound plate was prepared by 3-fold and 9-point serial dilutions. […] The reaction is initiated by The addition of the Mg/ATP mix. After incubation for 40 minutes at RT, the reaction is stopped by the addition of phosphoric acid to a concentration of 0.5%.
On to `CN(C)Cc1cc(-c2cc(-c3cc4c(cc3F)C(=O)NCC4)c(N)nc2F)ccc1N1CCOCC1` [I-433, 6-(2-amino-5-(3-((dimethylamino)methyl)-4-morpholinophenyl)-6-fluoropyridin-3-yl)-7-fluoro-3,4-dihydroisoquinolin-1(2H)-one], for which the IC50 lay within 0.1 to 10 nM.
In the case of `CO[C@H]1CCN(Cc2cc(-c3cc(-c4ccc5c(c4)CCNC5=O)c(N)nc3F)ccc2N2CCOCC2)C1` [I-565, (S)-6-(2-amino-6-fluoro-5-(3-((3-methoxypyrrolidin-1-yl)methyl)-4-morpholinophenyl)pyridin-3-yl)-3,4-dihydroisoquinolin-1(2H)-one] it was 0.1 to 10 nM; in that of `Nc1nc(F)c(-c2ccc(C3CCOCC3)cc2C2CNC(=O)C2)cc1-c1cc2c(cc1F)C(=O)NCC2` (centres unmarked) [I-479, 6-(2-amino-6-fluoro-5-(2-(5-oxopyrrolidin-3-yl)-4-(tetrahydro-2H-pyran-4-yl)phenyl)pyridin-3-yl)-7-fluoro-3,4-dihydroisoquinolin-1(2H)-one], above 1000 nM.
In the case of `CN(C)Cc1nc(-c2cc(-c3ccc4c(=O)[nH]cc(F)c4c3)c(N)nc2F)ccc1N1CCOCC1` [I-589, 6-(6′-amino-6-((dimethylamino)methyl)-2′-fluoro-5-morpholino-[2,3′-bipyridin]-5′-yl)-4-fluoroisoquinolin-1(2H)-one] it was 0.1 to 10 nM.
In the case of `Nc1nc(F)c(-c2ccc(N3CCCCC3)cc2)cc1-c1ccc2c(c1)CCNC2=O` [I-60, 6-(2-amino-6-fluoro-5-(4-(piperidin-1-yl)phenyl)pyridin-3-yl)-3,4-dihydroisoquinolin-1(2H)-one] it was 0.1 to 10 nM.
In the case of `Nc1nc(F)c(-c2ccc(N3CCN(C4CCC4)CC3)cc2)cc1-c1ccc2c(=O)[nH]cc(F)c2c1` [I-546, 6-(2-amino-5-(4-(4-cyclobutylpiperazin-1-yl)phenyl)-6-fluoropyridin-3-yl)-4-fluoroisoquinolin-1(2H)-one], the IC50 was in the range of 0.1 to 10 nM.
The value for `COC1CCN(Cc2cc(-c3cc(-c4cc5c(cc4F)C(=O)NCC5)c(N)nc3F)ccc2OCC2CC2)CC1` [I-509, 6-(2-amino-5-(4-(cyclopropylmethoxy)-3-((4-methoxypiperidin-1-yl)methyl)phenyl)-6-fluoropyridin-3-yl)-7-fluoro-3,4-dihydroisoquinolin-1(2H)-one] was 11 to 100 nM.
The value for `Nc1nc(F)c(-c2ccc(N3CCOCC3)c(CN3CCC3)c2)cc1-c1cc2c(cc1F)C(=O)NCC2` [I-550, 6-(2-amino-5-(3-(azetidin-1-ylmethyl)-4-morpholinophenyl)-6-fluoropyridin-3-yl)-7-fluoro-3,4-dihydroisoquinolin-1(2H)-one] was 11 to 100 nM; that for `Cn1cnnc1CC1(c2cccc(-c3cc(-c4ccc5c(c4)CCNC5=O)c(N)nc3F)c2)COC1` [I-638, 6-(2-amino-6-fluoro-5-(3-(3-((4-methyl-4H-1,2,4-triazol-3-yl)methyl)oxetan-3-yl)phenyl)pyridin-3-yl)-3,4-dihydroisoquinolin-1(2H)-one] was 101 to 1000 nM; that for `CN(C)Cc1cc(-c2cc(-c3cc4c(F)c[nH]c(=O)c4cc3F)c(N)nc2F)ccc1C1CCOCC1` [I-562, 6-(2-amino-5-(3-((dimethylamino)methyl)-4-(tetrahydro-2H-pyran-4-yl)phenyl)-6-fluoropyridin-3-yl)-4,7-difluoroisoquinolin-1(2H)-one] was 0.1 to 10 nM.
As for `CN(C)Cc1nc(-c2cc(-c3ccc4c(c3)CCNC4=O)c(N)nc2F)ccc1C1CCOCC1` [I-600, 6-(6′-amino-6-((dimethylamino)methyl)-2′-fluoro-5-(tetrahydro-2H-pyran-4-yl)-[2,3′-bipyridin]-5′-yl)-3,4-dihydroisoquinolin-1(2H)-one], the IC50 was 0.1 to 10 nM.
